Entries after “also recorded” stand apart in the source; their conditions may differ.
Legend:
[1] = Fluorescence spectra in phosphate buffer solution; assay type: physicochemical
Excerpt: (§1) A novel series of water-soluble carbazole-based fluorophores has been designed and developed. […] Upon binding with Aβ peptides, there is about 8- to about 82-fold increase in fluorescence intensity concomitant with the substantial blue shifts (Δλ=14-22 nm) in the emission spectra of the fluorophores (FIG. 2A-2H). […] (e.g. Ffibril/FSLOH=81.5 vs. Fpeptide/FSLOH=6.3). Because of such strong increase in fluorescence, the signal-to-noise ratio is so high that imaging of single fibrils is possible. (FIG. 3A-3C) Compared to common commercial labeling dyes for Aβ such as Thioflavin-T and Congo Red, the carbazole-based fluorophores of the present invention provide an advantage of a wide range of excitation and emission tuning in visible to infra-red region (FIG. 4A-4B). Some of these molecules, e.g., SAM and SAOH, even emit at ˜[…] (FIG. 5A-5B), which can potentially be used for near infra-red fluorescence imaging. In addition to fluorescence titration, the binding of Aβ peptide and fibril with the carbazole-based fluorophores of the present invention were further confirmed by circular dichroism spectroscopy (FIG. 6A-6B), and electrospray ionization-mass spectrometry (ESI-MS). Total Internal Reflection Fluorescence Microscope (TIRFM) technique developed by us was used to investigate the inhibition effects of these functional fluorophores on Aβ fibril formation (FIG. 7A-7F). […]

[2] = biological target: T1, Aβ (1-40) peptide aggregation / fibril formation (Homo sapiens, UniProt P05067); experiment: TIRFM study of inhibition of Aβ fibril formation; assay type: biochemical; settings: for inhibition of Aβ peptide aggregation and fibril growth: TIRFM, ThT dye excited at 445 nm
T1 construct: Aβ(1-40) fibrils prepared from Aβ40 with seed incubated at 37° C. for an hour in buffer
Excerpt: These images were obtained by an addition of ThT dye excited at 445 nm.
The panels below show the images of seed only and Aβ fibril formation without the carbazole-based fluorophore for comparison. These images were obtained by an addition of ThT dye excited at 445 nm.
A novel series of water-soluble carbazole-based fluorophores has been designed and developed. […] Upon binding with Aβ peptides, there is about 8- to about 82-fold increase in fluorescence intensity concomitant with the substantial blue shifts (Δλ=14-22 nm) in the emission spectra of the fluorophores (FIG. 2A-2H). […] (e.g. Ffibril/FSLOH=81.5 vs. Fpeptide/FSLOH=6.3). Because of such strong increase in fluorescence, the signal-to-noise ratio is so high that imaging of single fibrils is possible. (FIG. 3A-3C) Compared to common commercial labeling dyes for Aβ such as Thioflavin-T and Congo Red, the carbazole-based fluorophores of the present invention provide an advantage of a wide range of excitation and emission tuning in visible to infra-red region (FIG. 4A-4B). Some of these molecules, e.g., SAM and SAOH, even emit at ˜[…] (FIG. 5A-5B), which can potentially be used for near infra-red fluorescence imaging. In addition to fluorescence titration, the binding of Aβ peptide and fibril with the carbazole-based fluorophores of the present invention were further confirmed by circular dichroism spectroscopy (FIG. 6A-6B), and electrospray ionization-mass spectrometry (ESI-MS). Total Internal Reflection Fluorescence Microscope (TIRFM) technique developed by us was used to investigate the inhibition effects of these functional fluorophores on Aβ fibril formation (FIG. 7A-7F). […] Such inhibitory effect was further confirmed by Transmission Electron Microscopy (TEM) study (FIG. 8A-8B).
The inhibitory effect of the carbazole-based fluorophores of the present invention on Aβ fibril growth was further investigated by measuring the (average) length of the Aβ fibrils formed after incubation of the Aβ monomers for 60 min with additions of SLOH at different time points during this period (FIG. 9A-9B). Parallel experiments conducted without any addition of SLOH were used as controls.
Total Internal Reflection Fluorescence Microscope (TIRFM) technique developed was used to investigate the inhibition effects of these functional fluorophores on Aβ (1-40) fibril formation (FIG. 17).

[3] = system: SH-SY5Y neuronal cell; experiment: MTT reduction assay, cytotoxicity
Experimental: Human neuroblastoma SH-SY5Y neuronal cells were incubated with different concentrations of SLCOOH-conjugated SiO2@Fe3O4 nanoparticles at 37° C. for 24 h.

[4] = system: primary cortical neural cells; experiment: Protection from Aβ-induced cytotoxicity; assay type: cell-based; settings: Aβ monomer, oligomers and fibrils
Excerpt: (§2) The reactive oxygen species (ROS) induced by the Aβ toxicity causes much damage in AD.

[5] = system: ROS in primary cortical cells; experiment: Reduction of ROS induced by Aβ species; assay type: cell-based
Excerpt: as §2

[6] = system: Aβ plaques; experiment: Aβ plaque targeting in brain, co-stained with ThT or Aβ antibody; assay type: in vivo, transgenic mice; settings: brain slides co-stained with ThT or Aβ antibody with DAB stain
Excerpt: (§3) However, in order for the observed neuroprotective effect to be clinically useful, these molecules need to be able to pass through the blood-brain barrier.
(A) Differential Interference Contrast (DIC) image of the brain slice of a 12-month-old APP/PS1 Tg mouse. (B) Histological staining of the brain slice with SLCOOH-conjugated SiO2@Fe3O4 nanoparticles (λex=500 nm, λem=620-680 nm). (C) ThT fluorescence images of the brain slice captured with λex=405 nm, λem=460-490 nm (D) The superimposed images of (B) and (C).

[7] = Blood-brain barrier penetration after tail vein injection; assay type: in vivo; settings: mice
Excerpt: as §3

[8] = system: SH-SY5Y neuronal cell; experiment: Protection of neuronal cells from Aβ oligomer and fibril toxicity; assay type: cell-based, Human; settings: incubated for 2 and 6 hours
[9] = biological target: T2, Aβ(1-40) fibrils (Homo sapiens, UniProt P05067); experiment: Fluorescence titration of the fluorophores with Aβ fibrils; assay type: binding
T2 construct: Aβ(1-40) fibrils prepared from Aβ40 with seed incubated at 37° C. for an hour in buffer
Excerpt: as §1

[10] = system: Aβ(1-40) and Aβ(1-42) peptides; experiment: Fluorescence titration of the fluorophores with Aβ peptides; assay type: binding; settings: Aβ peptide
Excerpt: as §1

T1 sequence (P05067 672-711): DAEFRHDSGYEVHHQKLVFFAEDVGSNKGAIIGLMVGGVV
T2 sequence (P05067 672-711): as above

Structure (SMILES) | inhibition of Aβ peptide aggregation and fibril growth [2] | toxicity (in words) [3] | targeting of / selectivity towards Aβ plaques in brain [6] | ability to penetrate the blood-brain barrier [7] | further results
COCCOCCn1c2ccccc2c2cc(/C=C/c3c4ccccc4[n+](C)c4ccccc34)ccc21.[I-] [SAM, (E)-9-(2-(9-(2-(2-methoxyethoxy)ethyl)-9H-carbazol-3-yl)vinyl)-10-methylacridinium iodide] | inhibit Aβ peptide aggregation and prevent fibril growth | – | – | – | emission wavelength [1]: ~760 nm
CC[n+]1ccc(/C=C/c2ccc3c(c2)c2ccccc2n3CCOCCOC)c2ccccc21 [SLE, (E)-1-ethyl-4-(2-(9-(2-(2-methoxyethoxy)ethyl)-9H-carbazol-3-yl)vinyl)quinolinium bromide] | inhibit Aβ peptide aggregation and prevent fibril growth | – | – | – | –
COCCOCCn1c2ccc(F)cc2c2cc(/C=C/c3cc[n+](CCO)c4ccccc34)ccc21 [F-SLOH, (E)-4-(2-(6-Fluoro-9-(2-(2-methoxyethoxy)ethyl)-9H-carbazol-3-yl)vinyl)-1-(2-hydroxyethyl)quinolin-1-ium chloride] | inhibit Aβpeptide aggregation and prevent fibril growth; also recorded: inhibit Aβ (1-40) peptide aggregation and prevent fibril growth; also recorded: potent Aβ aggregation inhibitors | non-toxic | target the Aβ plaques | show blood-brain permeability; also recorded: ability to cross the blood-brain barrier | protection from the neurotoxic effects of the Aβ species [4]: protected from the neurotoxic effects of the Aβ species; also recorded: protective effect against the neurotoxic activities of the Aβ oligomers and fibrils; reduction of ROS induced by the Aβ species [5]: reduce the ROS induced by the Aβ species
COCCOCCn1c2ccccc2c2cc(/C=C/c3cc[n+](CC(=O)O)c4ccccc34)ccc21.[Br-] [SLCOOH, (E)-1-(carboxymethyl)-4-(2-(9-(2-(2-methoxyethoxy)ethyl)-9H-carbazol-3-yl)vinyl)quinolin-1-ium bromide] | – | non-toxic | able to target the Aβ species in-vivo with high affinity | BBB penetrable | –
COCCOCCn1c2ccccc2c2cc(/C=C/c3cc[n+](CCO)c4ccccc34)ccc21 [SLOH, (E)-1-(2-hydroxyethyl)-4-(2-(9-(2-(2-methoxyethoxy)ethyl)-9H-carbazol-3-yl)vinyl)-quinolinium chloride] | inhibition of Aβ fibril formation; also recorded: inhibit Aβ peptide aggregation and prevent fibril growth; also recorded: potent inhibitor of Aβ aggregation | non-toxic | colocalization of fluorescence signals of SLOH and ThT; also recorded: colocalization of fluorescence signals of SLOH and Aβ antibody; also recorded: selectivity of SLOH towards Aβ plaques | – | protection from the neurotoxic effects of Aβ oligomers and fibrils [8]: protected from the neurotoxic effects of the Aβ oligomers and fibrils; also recorded: protective effect against the neurotoxic activities of the Aβ oligomers and fibrils; Ffibril/FSLOH fluorescence enhancement [9]: 81.5; Fpeptide/FSLOH fluorescence enhancement [10]: 6.3; Aβ fibril growth (average fibril length) on addition of the compound ([2]; 50 μM added at different time points within 60 min incubation of Aβ monomer): strongly arrests its fibril growth
COCCOCCn1c2ccccc2c2cc(/C=C/c3cc[n+](CCOCCOC)c4ccccc34)ccc21 [SLG, (E)-1-(2-(2-methoxyethoxy)ethyl)-4-(2-(9-(2-(2-methoxyethoxy)ethyl)-9H-carbazol-3-yl)vinyl)quinolinium iodide] | inhibit Aβpeptide aggregation and prevent fibril growth; also recorded: inhibit Aβ (1-40) peptide aggregation and prevent fibril growth | – | – | show blood-brain permeability | –
CCOC(=O)C[n+]1ccc(/C=C/c2ccc3c(c2)c2ccccc2n3CCOCCOC)c2ccccc21 [SLAce, (E)-1-(2-Ethoxy-2-oxoethyl)-4-(2-(9-(2-(2-methoxyethoxy)ethyl)-9H-carbazol-3-yl)vinyl)quinolin-1-ium bromide] | inhibit Aβpeptide aggregation and prevent fibril growth; also recorded: inhibit Aβ (1-40) peptide aggregation and prevent fibril growth | – | – | show blood-brain permeability | –
COCCOCCn1c2ccccc2c2cc(/C=C/c3cc[n+](CCCO)c4ccccc34)ccc21 [SLOH-Pr, (E)-1-(3-hydroxypropyl)-4-(2-(9-(2-(2-methoxyethoxy)ethyl)-9H-carbazol-3-yl)vinyl)-quinolinium bromide] | inhibit Aβ peptide aggregation and prevent fibril growth | – | – | – | –
Cn1c2ccccc2c2cc(/C=C/c3cc[n+](C)c4ccccc34)ccc21 [Me-SLM, (E)-1-methyl-4-(2-(9-methyl-9H-carbazol-3-yl)vinyl)quinolinium iodide] | inhibit Aβ peptide aggregation and prevent fibril growth | – | – | – | –
COCCOCCn1c2ccccc2c2cc(/C=C/c3c4ccccc4[n+](CCO)c4ccccc34)ccc21.[I-] [SAOH, (E)-10-(2-hydroxyethyl)-9-(2-(9-(2-(2-methoxyethoxy)ethyl)-9H-carbazol-3-yl)vinyl)-acridinium iodide] | inhibition of Aβ fibril formation; also recorded: inhibit Aβ peptide aggregation and prevent fibril growth; also recorded: potent inhibitor of Aβ aggregation | non-toxic | – | – | emission wavelength [1]: ~760 nm; protection from the neurotoxic effects of Aβ oligomers and fibrils [8]: protected from the neurotoxic effects of the Aβ oligomers and fibrils; also recorded: protective effect against the neurotoxic activities of the Aβ oligomers and fibrils
COCCOCCn1c2ccccc2c2cc(/C=C/c3cc[n+](CC(N)=O)c4ccccc34)ccc21 [SLAD, (E)-1-(2-Amino-2-oxoethyl)-4-(2-(9-(2-(2-methoxyethoxy)ethyl)-9H-carbazol-3-yl)vinyl)quinolin-1-ium bromide] | inhibit Aβpeptide aggregation and prevent fibril growth; also recorded: inhibit Aβ (1-40) peptide aggregation and prevent fibril growth; also recorded: potent Aβ aggregation inhibitors | non-toxic | target the Aβ plaques; also recorded: colocalization of fluorescence signals of SLAD and Aβ antibody | show blood-brain permeability; also recorded: ability to cross the blood-brain barrier | protection from the neurotoxic effects of the Aβ species [4]: protected from the neurotoxic effects of the Aβ species; also recorded: protective effect against the neurotoxic activities of the Aβ oligomers and fibrils; reduction of ROS induced by the Aβ species [5]: reduce the ROS induced by the Aβ species

From patent US9795694B2, “Imaging beta-amyloid peptides aggregation” (Hong Kong Baptist University, priority 2014, dated 2017)
